Nine molecules from ChEMBL document CHEMBL1151698, “Inhibition of aldose reductase from cataracted eye lenses by finger millet (Eleusine coracana) polyphenols” (Bioorg Med Chem, 2008) can be followed below.

Structures are written as SMILES. Converted amounts (≈) assume the structure as drawn.

Test [1] concerns Radical scavenging activity. Nature of the test: Antioxidant activity assessed as DPPH radical scavenging activity after 20 mins. The test is classed as functional. (In general: The DPPH test is a chemical assay of radical scavenging.)
Test [2] concerns the target Aldo-keto reductase family 1 member B1 (Homo sapiens, UniProt P15121). Nature of the test: Inhibition of cataracted human eye lens aldose reductase.

Consider `O=C(O)/C=C/c1ccccc1` [CINNAMIC ACID], for which the half-inhibitory concentration (IC50) in test [1] is 96.7 µg/mL (≈ 653 µM); in test [2] it was 460 µM. For `O=C(O)/C=C/c1ccc(O)cc1` [COUMARIC ACID], the values for the IC50 in test [1] and in test [2] were 112.01 µg/mL (≈ 682 µM) and 989 µM, respectively. On to `COc1cc(/C=C/C(=O)O)ccc1O` [FERULATE], for which the half-maximal inhibitory concentration (IC50) in test [1] was 189.1 µg/mL (≈ 974 µM). With `O=C(O)c1cc(O)c(O)c(O)c1` [GALLIC ACID], the IC50 was 26.9 µg/mL (≈ 158 µM) in test [1] and 572 µM in test [2].

In the case of `O=C(O)c1ccc(O)cc1` [PARABEN], in test [1], the IC50 came to 183.7 µg/mL (≈ 1330 µM). Regarding `O=C(O)c1ccc(O)c(O)c1` [PROTOCATECHUIC ACID], the half-maximal inhibitory concentration (IC50) was 77.63 µg/mL (≈ 504 µM) in test [1] and 277 µM in test [2]. Consider `O=c1c(O)c(-c2ccc(O)c(O)c2)oc2cc(O)cc(O)c12` [QUERCETIN], for which the IC50 in test [1] was determined as 56.8 µg/mL (≈ 188 µM). On to `COc1cc(C(=O)O)cc(OC)c1O` [SYRINGIC ACID], for which the IC50 in test [1] is 155.6 µg/mL (≈ 785 µM); in test [2] it was 868 µM.

Regarding `COc1cc(C(=O)O)ccc1O` [VANILLIC ACID], the IC50 in test [1] was 176.5 µg/mL (≈ 1050 µM).

In general, IC50 refers to the point on the concentration scale where inhibition reaches its midpoint.
